Tests used:
[1] = system: HCV RNA replicon in cell line ET (luc-ubi-neo/ET), human Huh7 hepatoma; assay: Method A: HCV RNA replicon antiviral assay (luciferase, ET cell line); type: cell-based, Hepatitis C virus; details: Hepatitis C virus, Huh-7, assay described in Example 22
Outline: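 ET replicon cells (Huh7 carrying luciferase-reporter HCV replicon) plated at 5×10^3 cells/well and exposed 72 hr to six 3-fold drug concentrations in DMEM/5% FBS. Replicon luciferase gave EC50/EC90; CytoTox-1 cell counts gave IC50 (viability); […]. Interferon alpha-2b served as positive control.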

[2] = biological target: T1, wild type HCV NS3/4A 1b protease enzyme (Hepatitis C virus genotype 1b, UniProt P26663); assay: HCV Protease FRET Assay (IC50_APP), wild type; type: biochemical
T1 construct: 10× stocks of NS3/4A protease enzyme from Bioenza (Mountain View, Calif.); purchased Bioenza (Mountain View, Calif.)

[3] = biological target: T2, A156T mutant of the HCV NS3/4A 1b protease enzyme (Hepatitis C virus genotype 1b, UniProt P26663, A1182T); assay: HCV Protease FRET Assay (IC50_APP), A156T mutant; type: biochemical; details: apparent IC50, A156T mutant; read-out: IC50_APP, HCV A156T
T2 construct: 10× stocks of NS3/4A protease enzyme from Bioenza (Mountain View, Calif.); purchased Bioenza (Mountain View, Calif.)

[4] = biological target: T3, D168A mutant of the HCV NS3/4A 1b protease enzyme (Hepatitis C virus genotype 1b, UniProt P26663, D1194A); assay: HCV Protease FRET Assay (IC50_APP), D168A mutant; type: biochemical; details: apparent IC50, D168A mutant; read-out: IC50_APP, HCV D168A
T3 construct: 10× stocks of NS3/4A protease enzyme from Bioenza (Mountain View, Calif.); purchased Bioenza (Mountain View, Calif.)

[5] = biological target: T4, NS3 protease self-cleavage in Huh-7-Luc-Neo-ET wild-type replicon cells (Hepatitis C virus genotype 1b, UniProt Q9WMX2, E1202G/T1280I); assay: Inhibition of protease self cleavage after compound removal, wild-type replicon cells; type: cell-based
T4 construct: host or cells: Huh-7-Luc-Neo-ET (human Huh7 hepatoma cells carrying the replicon)
Description: Inhibition of Protease Self Cleavage
Huh-7-Luc-Neo-ET cells were plated in Replicon Assay Medium (RPMI supplemented with 5% FBS, 1× non-essential amino acids and pen/strep) at a density of 1×10^5 cells/well in 12 well plates. Eight hours later the media was removed and replaced with 1 ml media containing test compound (5 wells per compound) and 0.02% DMSO and the cells were returned to the incubator overnight. Sixteen hours later 1 well from each compound and 1 untreated well were washed with PBS, then lysed and scraped into 30 ul of Cell Extraction Buffer (Biosource, Camarillo, Calif.) plus Complete Protease Inhibitor (Roche, Indianapolis, Ind.). The remaining wells were rinsed 2× with PBS then fed with Replicon Media and returned to the incubator. […]
(§1) Cell lysates were separated by SDS-Page (4-20%) and transferred to Immobilon-P PVDF membrane (Millipore Corporation, Mass.) and blotted with polyclonal anti NS3 antibody (Bioenza, Calif.). Blots were scanned on an Odyssey infrared scanner from Licor and the FL band and cleavage products were quantified separately using the Licor software provided with the scanner. The cleavage product was calculated as a percentage of the total NS3 in each sample and then normalized to the DMSO control so that the DMSO control reflects 100% activity.

[6] = biological target: T5, NS3 protease with R155K mutation in modified replicon system (Hepatitis C virus genotype 1b, UniProt Q9WMX2, E1202G/R1181K/T1280I); assay: Inhibition of protease self cleavage after compound removal, R155K replicon system; type: cell-based
T5 construct: modified replicon system where the NS3 protease contains a clinically observed mutation; expressed in transfected cells; host or cells: Huh7-Lunet cells transfected with in vitro transcribed replicon RNA
Description: Constructs containing clinically relevant mutations were generated by performing site-directed mutagenesis on the pFK-I389-luc-ubi-neo-NS3-3′ET plasmid (ReBLikon Gmbh (Heidelberg, Germany)). using the QuickChange II Site-Directed Mutagenesis Kit (Stratagene, La Jolla, Calif.) according to manufacturer's directions and with the primers described in Table 7, below.
Huh-7-Luc-Neo-ET cells were plated in Replicon Assay Medium (RPMI supplemented with 5% FBS, 1× non-essential amino acids and pen/strep) at a density of 1×10^5 cells/well in 12 well plates. Eight hours later the media was removed and replaced with 1 ml media containing test compound (5 wells per compound) and 0.02% DMSO and the cells were returned to the incubator overnight. […]
as §1, with “activity. […]” for “activity.”

[7] = biological target: T6, C159S mutant of the HCV NS3/4A 1b protease enzyme (Hepatitis C virus genotype 1b, UniProt P26663, C1185S); assay: HCV Protease FRET Assay (IC50_APP), C159S mutant; type: biochemical; details: apparent IC50, C159S mutant
T6 construct: 10× stocks of NS3/4A protease enzyme from Bioenza (Mountain View, Calif.); purchased Bioenza (Mountain View, Calif.)
Description: HCV Protease FRET Assay for WT and Mutated NS3/4A 1b Enzymes (IC50—APP).
The following protocol was used to generate “apparent” IC50 (IC50—APP) values as depicted in Table 6, below. […] 5 μL of each enzyme were added to Corning (#3575) 384-well, black, microtiter plates (Corning, N.Y.) after spotting a 0.5 μL volume of 50% DMSO and serially diluted compounds prepared in 50% DMSO. Protease reactions were immediately started after enzyme addition with the addition of 45 μL of the FRET substrate and monitored for 60-90 minutes at λex485/λem520 in a Synergy^4 plate reader from BioTek (Winooski, Vt.). At the conclusion of each assay, progress curves from each well were examined for linear reaction kinetics and fit statistics (R^2, 95% confidence intervals, absolute sum of squares).
The compound numbers correspond to the compound numbers in Table 3. […] ;

[8] = biological target: T7, R155K mutant of the HCV NS3/4A 1b protease enzyme (Hepatitis C virus genotype 1b, UniProt P26663, R1181K); assay: HCV Protease FRET Assay (IC50_APP), R155K mutant; type: biochemical; details: apparent IC50, R155K mutant; read-out: IC50_APP, HCV R155K
T7 construct: 10× stocks of NS3/4A protease enzyme from Bioenza (Mountain View, Calif.); purchased Bioenza (Mountain View, Calif.)

[9] = biological target: T8, HCV NS3/4A wild type (genotype 1b) (Hepatitis C virus genotype 1b, UniProt P26663); assay: Mass spectrometric analysis (MALDI-TOF) of covalent modification, HCV wild type; type: binding; details: 10-fold excess of compound to protein, 3 hrs
T8 construct: mass spectroscopic analysis of HCV NS3/4A wild-type protease domain; purchased Bioenza Calif
Description: Mass spectrometric analysis of HCV wild type or HCV variant C159S in the presence of test compound was performed. 100 pmols of HCV wild type (Bioenza Calif.) was incubated with compound for 1 hr and 3 hrs at 10-fold access of […] to protein. 1 ul aliquots of the samples (total volume of 4.24 ul) were diluted with 10 ul of 0.1% TFA prior to micro C4 ZipTipping directly onto the MALDI target using Sinapinic acid as the desorption matrix (10 mg/ml in 01% TFA:Acetonitrile 50:50). Analyses were performed on a Shimadzu Biotech Axima TOF^2 (Shimadzu Instruments) matrix-assisted-laser desorption/ionization Time-of-Flight (MALDI-TOF) mass spectrometer. The same procedure was carried out on 100 pmols of HCV C159S mutant of HCV protease for 3 hrs at 10-fold excess of (I-3) to protein.
As depicted in FIGS. 2, 3, 4, and 5, mass spectrometric analysis of HCV wild type or HCV mutants in the presence of test compound (I-3) was performed. […] 1 ul aliquots of the samples were diluted with 10 ul of 0.1% TFA prior to micro C4 ZipTipping directly onto the MALDI target using Sinapinic acid as the desorption matrix (10 mg/ml in 0.1% TFA:Acetonitrile 50:50).
(§2) Mass spectrometric analysis of HCV wild type (genotype 1b) in the presence of test compounds I-73 and I-75 was performed using the following protocol: HCV NS3/4A wild type (wt) was incubated for 1 hr at a 10× fold access of test compound to protein. 2 ul aliquots of the samples were diluted with 10 ul of 0.1% TFA prior to micro C4 ZipTipping directly onto the MALDI target using Sinapinic acid as the desorption matrix (10 mg/ml in 0.1% TFA:Acetonitrile 50:50). For intact protein mass measurement the instrument was set in Linear mode using a pulsed extraction setting of 24,500 and apomyoglobin as the standard to calibrate the instrument.
Mass spectrometric analysis of HCV NS3/4A genotypes 1a, 1b, 2a, and 3a in the presence of test compound I-96 was performed using the following protocol: HCV NS3/4A was incubated for 3 hr at a 10× fold access of test compound to protein. […]

HCV NS3/4A genotype 1a = biological target: T9, HCV NS3/4A genotype 1a (Hepatitis C virus genotype 1a, UniProt P27958); assay: Mass spectrometric analysis of covalent modification, genotype 1a; type: binding; details: 10× excess of compound, 3 hr
T9 construct: Mass spectrometric analysis of HCV NS3/4A genotypes 1a, 1b, 2a, and 3a
Description: as §2, with “HCV NS3/4A genotypes 1a, 1b, 2a, and 3a” for “HCV wild type (genotype 1b)”, “test compound I-96” for “test compounds I-73 and I-75”, “NS3/4A” for “NS3/4A wild type (wt)”, “for 3” for “for 1”, “in 01%” for “in 0.1%”

HCV NS3/4A genotype 2a = biological target: T10, HCV NS3/4A genotype 2a (Hepatitis C virus genotype 2a, UniProt P26660); assay: Mass spectrometric analysis of covalent modification, genotype 2a; type: binding; details: 10× excess of compound, 3 hr
T10 construct: Mass spectrometric analysis of HCV NS3/4A genotypes 1a, 1b, 2a, and 3a
Description: as §2, with “HCV NS3/4A genotypes 1a, 1b, 2a, and 3a” for “HCV wild type (genotype 1b)”, “test compound I-96” for “test compounds I-73 and I-75”, “NS3/4A” for “NS3/4A wild type (wt)”, “for 3” for “for 1”, “in 01%” for “in 0.1%”

HCV NS3/4A genotype 3a = biological target: T11, HCV NS3/4A genotype 3a (Hepatitis C virus genotype 3a, UniProt Q81258); assay: Mass spectrometric analysis of covalent modification, genotype 3a; type: binding; details: 10× excess of compound, 3 hr
T11 construct: Mass spectrometric analysis of HCV NS3/4A genotypes 1a, 1b, 2a, and 3a
Description: as §2, with “HCV NS3/4A genotypes 1a, 1b, 2a, and 3a” for “HCV wild type (genotype 1b)”, “test compound I-96” for “test compounds I-73 and I-75”, “NS3/4A” for “NS3/4A wild type (wt)”, “for 3” for “for 1”, “in 01%” for “in 0.1%”

[10] = system: HCV RNA replicon in cell line ET (luc-ubi-neo/ET), human Huh7 hepatoma; assay: Luciferase Assay (Example 35), replicon-derived luciferase activity; type: cell-based; details: Hepatitis C virus, Huh-7, assay described in Example 35
Outline: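 Huh7-derived ET cells carrying a luciferase-reporter HCV replicon, 5×10^3 cells/well, exposed 72 h to six 3-fold compound concentrations in DMEM with 5% FBS. Replicon luciferase gives EC50/EC90; Cell Titer Blue cell number gives cytotoxic IC50, with SI50 as their ratio. Interferon alpha-2b served as positive control.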

[11] = biological target: HCV protease mutant A156T (Hepatitis C virus genotype 1b, UniProt Q9WMX2, A1182T); details: biochemical assays, read-out: Comparative Ki Values, A156T; cited from earlier work
[12] = biological target: HCV protease mutant D168A (Hepatitis C virus genotype 1b, UniProt Q9WMX2, D1194A); details: biochemical assays, cited from earlier work

C=CC(=O)N[C@H](C)C(=O)N1C[C@H](Oc2cc(-c3ccccc3)nc3cc(OC)ccc23)C[C@H]1C(=O)N[C@]1(C(=O)NS(=O)(=O)C2CC2)C[C@H]1C=C [Compound I-54, (2S,4R)-1-((R)-2-acrylamidopropanoyl)-N-((1R,2S)-1-(cyclopropylsulfonylcarbamoyl)-2-vinylcyclopropyl)-4-(7-methoxy-2-phenylquinolin-4-yloxy)pyrrolidine-2-carboxamide]
IC90 ([1]; IC90): < 10 nM
IC50 ([1]; read-out: Replicon (IC50)): < 10 nM
IC50 [2]: < 10 nM
IC50 [3]: 10 to 100 nM
IC50 [4]: 10 to 100 nM
Inhibition of NS3 protease activity (self-cleavage) after compound removal ([5]; up to 24 hours after compound removal): virtually complete inhibition
Duration of inhibition of mutant protease activity after compound removal [6]: at least 24 hours

C=C[C@@H]1C[C@]1(NC(=O)[C@@H]1C[C@@H](Oc2nccc3cc(OC)ccc23)CN1C(=O)[C@H](CCC(=O)C=C(C)C)NC(=O)OC(C)(C)C)C(=O)NS(=O)(=O)C1CC1 [Compound I-96, {1-[2-(1-Cyclopropanesulfonylaminocarbonyl-2-vinyl-cyclopropylcarbamoyl)-4-(6-methoxy-isoquinolin-1-yloxy)-pyrrolidine-1-carbonyl]-6-methyl-4-oxo-hept-5-enyl}-carbamic acid tert-butyl ester]
IC50 [2]: < 10 nM
IC50 [7]: < 10 nM
IC50 [3]: 10 to 100 nM
IC50 [4]: 100 to 1000 nM
IC50 [8]: 10 to 100 nM
Covalent modification of HCV wild type by mass spectrometry [9]: measurable covalent modification
Covalent modification of HCV NS3/4A genotype 1a by mass spectrometry (HCV NS3/4A genotype 1a): measurable covalent modification
Covalent modification of HCV NS3/4A genotype 2a by mass spectrometry (HCV NS3/4A genotype 2a): measurable covalent modification
Covalent modification of HCV NS3/4A genotype 3a by mass spectrometry (HCV NS3/4A genotype 3a): measurable covalent modification
EC90 ([10]; EC90): 10 to 100 nM
EC50 [10]: < 10 nM

CCC[C@H](NC(=O)[C@@H]1[C@H]2CCC[C@H]2CN1C(=O)[C@@H](NC(=O)[C@@H](NC(=O)c1cnccn1)C1CCCCC1)C(C)(C)C)C(=O)C(=O)NC1CC1 [VX-950]
Return of NS3 self-cleavage activity after drug removal ([5]; 16 hours incubation, in as little as 4 hours after removal): virtually complete return of activity
Ki [11]: 9900 nM
IC50 ([12]; literature, read-out: Comparative IC50 Values, D168A): 193 nM
Ki ([12]; read-out: Comparative Ki Values, D168A): 150 nM
